Laboratory results as given in publication PMC5590679 (Journal of medicinal chemistry, 2017).

Tested on: Mtb BioA overexpression strain (BioA-OE)
Assay: microbe, parasite or virus in culture
Format: cell-based, Mycobacterium tuberculosis

Row | Compound | MIC50 BioA-OE (MIC that results in 50% inhibition, […]) | MIC (Mycobacterium tuberculosis, read-out: MIC that results in 90% inhibition, BioA-OE)
1 | (3-Chlorophenyl)(4-(5-methoxypyridin-2-yl)piperazin-1-yl)-methanone [Compound 22] | >50 µM | 
2 | CC(=O)c1ccc(N2CCN(C(=O)c3ccc4c(c3)OCO4)CC2)cc1 [Compound 6, 1-(4-(4-(Benzo[d][1,3]dioxole-5-carbonyl)piperazin-1-yl)phenyl)-ethanone] |  | > 50 µM
